Drawing on ChEMBL document CHEMBL3987221, “The Australian National University Dept Of Immunology Pathogen Box Compounds Screened” (2018), this text covers inhibition for 56 molecules.

Calls of active or inactive are those of the source. The rule behind the calls is not given here.

Experiment [1] concerns the target T1, Porphobilinogen deaminase (Homo sapiens) (UniProt P08397).
T1 sequence (whole entry): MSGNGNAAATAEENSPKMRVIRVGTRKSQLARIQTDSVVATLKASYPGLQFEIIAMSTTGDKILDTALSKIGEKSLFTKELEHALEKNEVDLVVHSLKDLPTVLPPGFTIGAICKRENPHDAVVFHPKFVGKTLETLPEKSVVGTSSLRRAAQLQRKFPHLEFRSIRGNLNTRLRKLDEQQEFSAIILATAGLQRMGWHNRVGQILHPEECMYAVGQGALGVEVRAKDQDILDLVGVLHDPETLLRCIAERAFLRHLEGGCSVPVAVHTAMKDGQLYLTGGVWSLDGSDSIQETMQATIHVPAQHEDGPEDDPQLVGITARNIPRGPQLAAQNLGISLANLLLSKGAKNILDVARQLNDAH
As to conditions: at 100 µM.
Description: Compound was evaluated for the inhibition of human HMBS at 100uM

In experiment [2] the target is T2, Ferrochelatase, mitochondrial (Homo sapiens) (UniProt P22830).
T2 sequence (whole entry): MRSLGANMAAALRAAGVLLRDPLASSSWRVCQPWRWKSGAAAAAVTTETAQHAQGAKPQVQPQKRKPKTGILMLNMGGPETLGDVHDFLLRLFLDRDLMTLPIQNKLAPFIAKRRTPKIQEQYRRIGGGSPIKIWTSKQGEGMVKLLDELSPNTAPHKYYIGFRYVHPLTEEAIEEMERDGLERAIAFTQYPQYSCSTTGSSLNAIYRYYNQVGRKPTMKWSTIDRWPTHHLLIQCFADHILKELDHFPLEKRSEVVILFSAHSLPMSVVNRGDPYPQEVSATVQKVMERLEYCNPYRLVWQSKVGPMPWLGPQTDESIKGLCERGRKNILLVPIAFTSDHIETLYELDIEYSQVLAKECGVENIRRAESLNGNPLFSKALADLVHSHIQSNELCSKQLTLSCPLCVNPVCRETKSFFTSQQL
Particulars: at 10 µM.
Description: Compound was evaluated for the inhibition of human FECH at 10uM

With `Cc1cc(Cl)ccc1NC(=O)CCc1ccc(S(=O)(=O)NCC(C)C)cc1`, the inhibition entry in experiment [1] and in experiment [2] was “inactive” throughout.
Turning to `Cc1cc(O)nc(-n2nc(C)cc2C)n1`, the inhibition entry in experiment [1] and in experiment [2] was “inactive” in each case.
Regarding `O=C(Nc1ccc(F)c(-c2nc3cc(-c4ccccc4)cnc3[nH]2)c1)N1CCCC1`, the inhibition entry in experiment [1] and in experiment [2] was “inactive” in each case.
For `O=C(NCc1ccoc1)N1CCN(Cc2ccc3c(c2)OCO3)CC1`, the inhibition entry in experiment [1] and in experiment [2] was “inactive” each time.
Regarding `O=C(NCc1nnc2n1CCCCC2)c1ccc(-c2ccc(F)cc2)o1`, the inhibition result in experiment [1] and in experiment [2] was “inactive” throughout.
Consider `O=C(NC1CC1)c1ccc(N2CCC(Cc3ccccc3)CC2)nc1`, for which the inhibition result in experiment [1] and in experiment [2] was “inactive” each time.
As to `Cc1nnc(NC(=O)c2cn(-c3ccccc3)nc2-c2ccccc2C)o1`, the inhibition result in experiment [1] and in experiment [2] was “inactive” each time.
In the case of `CC(C)(C)c1cc(C(=O)N2CCN(c3nccnc3C#N)CC2)n(Cc2ccccc2)n1`, the inhibition result in experiment [1] and in experiment [2] was “inactive” each time.
As to `COc1cc(NC(=O)Cc2nn(C)c(=O)c3ccccc23)ccc1Cl`, the inhibition result in experiment [1] and in experiment [2] was “inactive” in each case.
For the molecule `CC1CCCCN1C(=O)NCCc1coc(-c2ccc(F)cc2)n1` (configuration not stated), the inhibition result in experiment [1] and in experiment [2] was “inactive” throughout.
As to `CC(C)=CCC/C(C)=C\CNCCNC1C2CC3CC(C2)CC1C3` (configuration not stated), the inhibition result in experiment [1] and in experiment [2] was “inactive” throughout.
For `CC(c1cc(Cl)cc(Cl)c1)N(C)c1ncc2c(N)nc(N)nc2n1` (configuration not stated), the inhibition entry in experiment [1] and in experiment [2] was “inactive” throughout.
Consider `O=C(Nc1nc(-c2ccccn2)cs1)C1CC1c1ccccc1F` (configuration not stated), for which the inhibition result in experiment [1] and in experiment [2] was “inactive” each time.
As for `O=C(Nc1cccc(Cl)c1)c1cnc(N2CCN(c3ccncc3)CC2)c(Cl)c1`, the inhibition result in experiment [1] and in experiment [2] was “inactive” in each case.
Consider `Cc1[nH]c2ccccc2c1C(c1cccs1)N1CCN(C)CC1` (configuration not stated), for which the inhibition result in experiment [1] and in experiment [2] was “inactive” each time.
With `COc1cc(C(F)(F)F)nc2ccc(C)c(N)c12`, the inhibition entry in experiment [1] and in experiment [2] was “inactive” in each case.
In the case of `COc1cc(CN2CCC3(C=Cc4ccccc43)CC2)cc2c1OCO2`, the inhibition entry in experiment [1] and in experiment [2] was “inactive” in each case.
Turning to `O=C(Nc1ccnc(-c2cccnc2)n1)c1cc(C(F)(F)F)cc(C(F)(F)F)c1`, the inhibition result in experiment [1] and in experiment [2] was “inactive” each time.
For the molecule `CC(C)c1ncc(-c2ccncc2)c([C@H]2CC[C@H](CNC(=O)c3cccnc3)CC2)n1`, the inhibition result in experiment [1] and in experiment [2] was “inactive” throughout.
In the case of `CCOc1ccc(-c2nc(NC(=O)CS(=O)(=O)c3ccccc3)sc2C)cc1`, the inhibition result in experiment [1] and in experiment [2] was “inactive” throughout.
Take `CCc1ccc(C(NCc2nc(N)nc(N(C)C)n2)C(C)C)cc1` (configuration not stated): the inhibition entry in experiment [1] and in experiment [2] was “inactive” in each case.
Take `Cc1ccccc1CN1CCC(O)(c2ccc(Cl)c(C(F)(F)F)c2)CC1`: the inhibition entry in experiment [1] and in experiment [2] was “inactive” each time.
Consider `Nc1nc(N)c2c3c(sc2n1)CN(Cc1ccccc1)CC3`, for which the inhibition entry in experiment [1] and in experiment [2] was “inactive” in each case.
Regarding `CCOC(=O)c1noc(N)c1-c1ccccc1`, the inhibition entry in experiment [1] and in experiment [2] was “inactive” throughout.
Take `CCCCCCCCCCCCCCCCOP(=O)([O-])OCC[N+](C)(C)C`: the inhibition result in experiment [1] and in experiment [2] was “inactive” in each case.
With `C[C@H](c1ccc2c(c1)CCCC2)N(C)c1ncc2c(N)nc(N)nc2n1`, the inhibition result in experiment [1] and in experiment [2] was “inactive” each time.
`COc1ccc(-c2nn(C(C)C)c3ncnc(N)c23)cc1OC`: the inhibition result in experiment [1] and in experiment [2] was “inactive” each time.
As to `CC1CS(=O)(=O)CCN1/N=C/c1ccc([N+](=O)[O-])o1` (configuration not stated), the inhibition entry in experiment [1] and in experiment [2] was “inactive” in each case.
In the case of `CCCNC(=O)N1CCC2(CC1)CC(=O)c1cc(C)ccc1O2`, the inhibition result in experiment [1] and in experiment [2] was “inactive” throughout.
Turning to `CCc1cc(=O)n(C)c(SC(C)C(=O)Nc2ccc(F)cc2)n1` (configuration not stated), the inhibition entry in experiment [1] and in experiment [2] was “inactive” each time.
For `Cc1nn(Cc2ccccc2)c(Cl)c1C(=O)NC1CCCCCC1`, the inhibition entry in experiment [1] and in experiment [2] was “inactive” throughout.
`COc1ccc(C(=N)N)cc1-c1cn(-c2ccc(C(=N)N)cc2)nn1`: the inhibition entry in experiment [1] and in experiment [2] was “inactive” in each case.
Take `N=C(N)Nc1ccc(-c2ccc(-c3ccc(NC(=N)N)cc3Cl)o2)c(Cl)c1`: the inhibition entry in experiment [1] and in experiment [2] was “inactive” each time.
Consider `COc1cccc(NC(=O)c2c(NC(=O)c3cccnc3)sc3c2CCC3)c1`, for which the inhibition result in experiment [1] and in experiment [2] was “inactive” in each case.
With `O=C(NCc1ccco1)N1CCN(Cc2ccc(Cl)s2)CC1`, the inhibition result in experiment [1] and in experiment [2] was “inactive” in each case.
On to `CCCn1c(NC(=O)c2ccc3ccccc3n2)nc2ccccc21`, for which the inhibition result in experiment [1] and in experiment [2] was “inactive” in each case.
Consider `Cc1cccc(C(=O)Nc2ccnc(N(C)C3CCN(CC(C)C)CC3)c2)c1`, for which the inhibition entry in experiment [1] and in experiment [2] was “inactive” in each case.
In the case of `CC(=O)N1CCN(c2ccc(Oc3ccc(Cl)cc3O)cc2)CC1`, the inhibition result in experiment [1] and in experiment [2] was “inactive” each time.
Take `CCN(CC)S(=O)(=O)c1ccc(C(=O)Nc2cc(C)nn2-c2nc(C)c(C)c(=O)[nH]2)cc1`: the inhibition entry in experiment [1] and in experiment [2] was “inactive” throughout.
Turning to `COc1ccc(C2=NCCN2)cc1-c1cn(-c2cccc(C3=NCCN3)c2)nn1`, the inhibition result in experiment [1] and in experiment [2] was “inactive” each time.
Take `COc1ccc(-c2cncc3ccc(C(=O)NCCCn4ccnc4)nc23)cc1`: the inhibition result in experiment [1] and in experiment [2] was “inactive” each time.
As for `CO/N=C(\C(=O)OC)c1ccccc1CO/N=C(\C)c1cccc(C(F)(F)F)c1`, the inhibition entry in experiment [1] and in experiment [2] was “inactive” each time.
Regarding `Cc1cc(C(=O)Nc2cnn(Cc3ccc(Cl)cc3Cl)c2)no1`, the inhibition result in experiment [1] and in experiment [2] was “inactive” each time.
On to `CN1CCN(c2nccc3nc(-c4ccc(F)c(F)c4)[nH]c23)CC1`, for which the inhibition entry in experiment [1] and in experiment [2] was “inactive” throughout.
Turning to `NS(=O)(=O)c1cccc(-c2ccc3ncc(N4CCOCC4)nc3c2)c1`, the inhibition result in experiment [1] and in experiment [2] was “inactive” in each case.
Take `CC1COC(Cn2cncn2)(c2ccc(Oc3ccc(Cl)cc3)cc2Cl)O1` (configuration not stated): the inhibition result in experiment [1] and in experiment [2] was “inactive” each time.
Turning to `O=C(NCCc1ccccc1)c1cc(-c2cccnc2)cnc1NCC1CC1`, the inhibition entry in experiment [1] and in experiment [2] was “inactive” each time.
Regarding `CCCCS(=O)(=O)Nc1ccc2cnn(C)c2c1`, the inhibition entry in experiment [1] and in experiment [2] was “inactive” in each case.
As to `CC(C)NCC(=O)Nc1cccc(C(=O)Nc2cccc(C(F)(F)F)c2)c1`, the inhibition entry in experiment [1] and in experiment [2] was “inactive” in each case.
Turning to `CC(C)(C(=O)Nc1ccc(F)cc1)n1cc(-c2ccccc2F)cn1`, the inhibition result in experiment [1] and in experiment [2] was “inactive” each time.
On to `O=C(NCCc1c[nH]c2ccccc12)c1cc2ccccc2oc1=O`, for which the inhibition result in experiment [1] and in experiment [2] was “inactive” throughout.
Consider `O=C(N[C@H](Cc1ccccc1)C(=O)Nc1ccccc1N1CCOCC1)c1cccs1`, for which the inhibition entry in experiment [1] and in experiment [2] was “inactive” throughout.
Take `O=C(Cn1ccnc1[N+](=O)[O-])NCc1ccccc1`: the inhibition entry in experiment [1] and in experiment [2] was “inactive” throughout.
For `O=C(Nc1ccc(C(F)(F)F)c(C(F)(F)F)c1)c1cc(Cl)ccc1O`, the inhibition entry in experiment [1] and in experiment [2] was “inactive” throughout.
For `NC(=O)c1cc(-c2ccsc2)ccc1OCCOc1ccccc1`, the inhibition entry in experiment [1] and in experiment [2] was “inactive” throughout.
Take `COc1ccc(CN2CCOc3ccc(C(C)(O)CN(C)C)cc3C2)cc1C` (configuration not stated): the inhibition entry in experiment [1] and in experiment [2] was “inactive” each time.
